Measured values as given in patent publication US20170224819A1, “Therapeutic Combinations of a BTK Inhibitor, a PI3K Inhibitor, a JAK-2 Inhibitor, and/or a CDK 4/6 Inhibitor” (Acerta Pharma B.V., priority 2014, published 2017).
“Also recorded” adds a separate entry of the source.

Legend:
ID8 ovarian cancer = experiment: ID8 syngeneic orthotropic ovarian cancer murine model; assay type: in vivo, mice; conditions: 15 mg/kg/BID orally
Text: Human ovarian cancer models, including the ID8 syngeneic orthotropic ovarian cancer model and other animal models, are described in Fong and Kakar, J. Ovarian Res. 2009, 2, 12; Greenaway et al., Gynecol. Oncol. 2008, 108, 385-94; Urzua et al., Tumour Biol. 2005, 26, 236-44; Janat-Amsbury et al., Anticancer Res. 2006, 26, 3223-28; Janat-Amsbury et al., Anticancer Res. 2006, 26, 2785-89. […] The results of the study are shown in FIG. 108, FIG. 109, FIG. 110, FIG. 111, FIG. 112, FIG. 113, FIG. 114, and FIG. 115.

KrasLA2 NSCLC = experiment: KrasLA2 non-small cell lung cancer (NSCLC) model; assay type: in vivo
Text: FIG. 161 illustrates the dosing schema used with the KrasLA2 non-small cell lung cancer (NSCLC) model.
FIG. 162 illustrates tumor volume variation from baseline as assessed by microcomputerized tomography (microCT) in the KrasL2 NSCLC model.

CLL = experiment: Clinical study of Formula (XVIII) in CLL; assay type: in vivo
Text: J. Med. 2013, 369, 32-42.

[1] = tested on: spontaneous pancreatic tumors (KPC mice); experiment: KPC mouse model of advanced pancreatic cancer; assay type: in vivo; conditions: for Tumor volume, average: N=6
Protocol: The KPC mouse model recapitulates many of the molecular, histopathologic, and clinical features of human disease (Westphalen and Olive, Cancer J. 2012, 18, 502-510). Combination therapy with gemcitabine was also evaluated in this model. Mice were enrolled after identification of spontaneously appearing tumors in the pancreas that were >100 mm^3 (as assessed by high-resolution ultrasonography).

[2] = Study of respiratory function; conditions: rats, doses through 300 mg/kg
EGFR = EGFR (Homo sapiens, UniProt P00533); experiment: EGF-induced EGFR phosphorylation in A431 cells (phosphoflow); conditions: 10 μM; A431 human epidermoid cancer cell line
Sequence of EGFR (P00533 25-1210): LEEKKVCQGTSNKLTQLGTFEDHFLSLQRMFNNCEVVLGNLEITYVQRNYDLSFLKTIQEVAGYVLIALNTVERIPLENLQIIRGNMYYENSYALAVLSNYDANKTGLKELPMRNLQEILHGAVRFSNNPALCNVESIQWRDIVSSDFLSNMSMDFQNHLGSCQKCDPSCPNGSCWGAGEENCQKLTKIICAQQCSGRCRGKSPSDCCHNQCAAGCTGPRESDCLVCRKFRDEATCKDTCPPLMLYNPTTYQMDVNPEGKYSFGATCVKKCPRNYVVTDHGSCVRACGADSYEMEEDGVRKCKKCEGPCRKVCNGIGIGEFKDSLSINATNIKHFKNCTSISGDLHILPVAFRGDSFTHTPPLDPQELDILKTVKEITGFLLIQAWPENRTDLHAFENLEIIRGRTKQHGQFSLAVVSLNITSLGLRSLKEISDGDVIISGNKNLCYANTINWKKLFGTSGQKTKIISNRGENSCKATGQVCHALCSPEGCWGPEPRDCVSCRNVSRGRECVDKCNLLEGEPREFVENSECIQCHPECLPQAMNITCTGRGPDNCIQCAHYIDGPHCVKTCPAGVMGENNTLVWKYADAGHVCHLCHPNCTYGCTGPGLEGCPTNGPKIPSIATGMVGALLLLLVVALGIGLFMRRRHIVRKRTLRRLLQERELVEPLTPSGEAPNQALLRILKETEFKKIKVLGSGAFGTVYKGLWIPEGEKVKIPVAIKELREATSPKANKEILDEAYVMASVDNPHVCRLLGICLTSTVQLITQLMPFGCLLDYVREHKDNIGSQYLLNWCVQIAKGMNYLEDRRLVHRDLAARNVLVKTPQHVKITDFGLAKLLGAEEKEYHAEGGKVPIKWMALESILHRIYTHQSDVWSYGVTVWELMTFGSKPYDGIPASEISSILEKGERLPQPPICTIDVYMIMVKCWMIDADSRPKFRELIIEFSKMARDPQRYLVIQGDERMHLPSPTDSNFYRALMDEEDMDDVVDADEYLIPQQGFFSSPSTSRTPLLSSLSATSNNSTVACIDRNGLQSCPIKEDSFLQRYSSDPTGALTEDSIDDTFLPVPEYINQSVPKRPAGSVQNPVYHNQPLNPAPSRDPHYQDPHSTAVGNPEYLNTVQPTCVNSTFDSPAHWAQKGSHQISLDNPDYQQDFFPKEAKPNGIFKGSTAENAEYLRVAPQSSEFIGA

[3] = tested on: human platelet-mediated thrombosis; experiment: In vivo human thrombus formation in the VWF HA1 mice model (laser-induced injury); conditions: pretreated human platelets
Protocol: Constitutive or aberrant activation of the BCR signaling cascade has been implicated in the propagation and maintenance of a variety of B cell malignancies. […] J. Haematol. […] In fact, both Tec and BTK play an important role in the regulation of phospholipase Cγ2 (PLCγ2) downstream of the collagen receptor glycoprotein VI (GPVI) in human platelets. […] Biotechnol.
Injury to the vessel wall of arterioles ([…] diameter) was performed using a pulsed nitrogen dye laser (440 nm, Photonic Instruments) applied through a 20× water-immersion Olympus objective (LUMPlanFl, 0.5 numerical aperature (NA)) of a Zeiss Axiotech vario microscope. […] The extent of thrombus formation was assessed for 2 minutes after injury and the area (μm^2) of coverage determined (Image IQ, Andor Technology).
The BTK inhibitor-treated human platelets were fluorescently labeled and infused continuously through a catheter inserted into the femoral artery.

## CC#CC(=O)N1CCC[C@H]1c1nc(-c2ccc(C(=O)Nc3ccccn3)cc2)c2c(N)nccn12 [Formula (XVIII), (S)-4-(8-amino-3-(1-(but-2-ynoyl)pyrrolidin-2-yl)imidazo[1,5-a]pyrazin-1-yl)-N-(pyridin-2-yl)benzamide]
ID8 ovarian cancer
  CD8+ T cells: increase in CD8^+ T cells
  ID8 ovarian cancer growth: impairs ID8 ovarian cancer growth
  Immunosuppressive B cells: significant reduction in immunosuppressive B cells
  Immunosuppressive tumor-associated lymphocytes: significant reduction in immunosuppressive tumor-associated lymphocytes
  Tumor associated Tregs: significant reduction in immunosuppressive tumor associated Tregs
KrasLA2 NSCLC; FIG. 163
  immunosuppressive tumor associated TAMs: significant reduction
KrasLA2 NSCLC; FIG. 164
  immunosuppressive tumor associated MDSCs: significant reduction
KrasLA2 NSCLC; FIG. 165
  immunosuppressive tumor associated Tregs: significant reduction
CLL; CLL patients, FIG. 157
  apoptosis: increased
CLL; CLL, compared with ibrutinib, FIG. 138
  sum of the product of greatest diameters (SPD): decreases more rapidly
CLL; CLL, relative to ibrutinib (Byrd et al. 2013), FIG. 138
  absolute lymphocyte count (ALC): much smaller relative increase and much faster decrease
CLL; patients treated, FIG. 158
  CXCL12 levels: decrease
CLL; patients treated, FIG. 159
  CCL2 levels: decrease
[1]; 15 mg/kg BID orally
  CD8+ cells in tumor tissues: significant increase in CD8^+ cells
  Immunosuppressive TAMs, MDSCs and Tregs in tumor tissues: significantly reduced
  Pancreatic cancer growth and animal survival: substantially slowed pancreatic cancer growth and increased animal survival
[1]; day 14
  Survival: 6/6
[1]; day 28
  Survival: 5/6
[1]; day 28, 15 mg/kg BID orally
  Tumor volume, average: 272 mm^3
[1]; predose, 15 mg/kg BID orally
  Tumor volume, average: 165 mm^3
[2]
  Respiratory function: no treatment-related adverse effects
EGFR
  Inhibition of in vitro EGFR phosphorylation: no inhibition
[3]
  Effect on human platelet-mediated thrombus formation: does not interfere with thrombus formation; also recorded: no significant effect on human platelet-mediated thrombus formation
